Tests used:
Test in all cases: B2 Post-Emergence Efficacy - Test 2
Assay type in all cases: in vivo
[1] = system: Alopecurus myosuroides (ALOMY); conditions: 15 days after application, 0-100 scale
In short: (§1)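 The compound, dissolved in IF50 and made up as an aqueous spray with 0.2% v/v Genapol X080, is applied post-emergence to plants raised for 12 days from seed. Injury is assessed 15 days afterwards, 0 for undamaged through 100 for fully killed.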

[2] = system: Euphorbia hetrophylla (EPHHL); conditions: 15 days after application, 0-100 scale
In short: as §1

[3] = system: Xanthium strumarium (XANST); conditions: 15 days after application, 0-100 scale
In short: as §1

Sorghum bicolour (SORVU) = conditions: 15 days after application, 0=no damage, 100=total kill
In short: as §1

[4] = system: Echinochloa crus galli (ECHCG); conditions: 15 days after application, 0=no damage, 100=total kill
In short: as §1

Orysa sativa (ORYSA) = conditions: 15 days after application; for Herbicidal activity ORYSA: 0-100 scale; for Herbicidal activity on a 0-100 scale, ORYSA: 0=no damage, 100=total kill
In short: as §1

Galium aparine (GALAP) = conditions: 15 days after application, 0-100 scale
In short: as §1

Sinapis arvensis (SINAR) = conditions: 15 days after application, 0-100 scale
In short: as §1

Poa annua (POAAN) = conditions: 15 days after application, 0-100 scale
In short: as §1

[5] = system: Abutilon theophrasti (ABUTH); conditions: 15 days after application, 0-100 scale
In short: as §1

Sida spinosa (SIDSP) = conditions: 15 days after application, 0-100 scale
In short: as §1

[6] = system: Panicum miliaceum (PANMI); conditions: 15 days after application, 0=no damage, 100=total kill
In short: as §1

Veronica persica (VERPE) = conditions: 15 days after application, 0-100 scale
In short: as §1

[7] = system: Digitaria sanguinalis (DIGSA); conditions: 15 days after application, 0=no damage, 100=total kill
In short: as §1

[8] = system: Ipomoea hederacea (IPOHE); conditions: 15 days after application, 0-100 scale
In short: as §1

Lolium perenne (LOLPE) = conditions: 15 days after application, 0-100 scale
In short: as §1

Beta vulgaris (BEAVA) = conditions: 15 days after application, 0-100 scale
In short: as §1

Bidens pilosa (BIDPI) = conditions: 15 days after application, 0-100 scale
In short: as §1

SMILES: Cc1nn(C)c(=O)c(-c2c(F)ccc(Cl)c2CCc2ccc(F)cc2)c1OC(=O)C(C)C [Compound 1.125, [5-[3-chloro-6-fluoro-2-[2-(4-fluorophenyl)ethyl]phenyl]-1,3-dimethyl-6-oxo-pyridazin-4-yl] 2-methylpropanoate]
- Herbicidal activity ALOMY ([1]; 15 g/Ha): 10
- Herbicidal activity ALOMY ([1]; 30 g/Ha): 10
- Herbicidal activity ALOMY ([1]; 60 g/Ha): 30
- Herbicidal activity ALOMY ([1]; 125 g/Ha): 30
- Herbicidal activity ALOMY ([1]; 250 g/Ha): 60
- Herbicidal activity ALOMY ([1]; 500 g/Ha): 40
- Herbicidal activity EPHHL ([2]; 15 g/Ha): 90
- Herbicidal activity EPHHL ([2]; 30 g/Ha): 90
- Herbicidal activity EPHHL ([2]; 60 g/Ha): 100
- Herbicidal activity EPHHL ([2]; 125 g/Ha): 100
- Herbicidal activity EPHHL ([2]; 250 g/Ha): 100
- Herbicidal activity EPHHL ([2]; 500 g/Ha): 100
- Herbicidal activity XANST ([3]; 30 g/Ha): 90
- Herbicidal activity XANST ([3]; 60 g/Ha): 90
- Herbicidal activity XANST ([3]; 125 g/Ha): 90
- Herbicidal activity XANST ([3]; 250 g/Ha): 90
- Herbicidal activity XANST ([3]; 500 g/Ha): 100
- Herbicidal activity on a 0-100 scale, SORVU (Sorghum bicolour (SORVU); 15 g/Ha): 0
- Herbicidal activity on a 0-100 scale, SORVU (Sorghum bicolour (SORVU); 30 g/Ha): 50
- Herbicidal activity on a 0-100 scale, SORVU (Sorghum bicolour (SORVU); 60 g/Ha): 50
- Herbicidal activity on a 0-100 scale, SORVU (Sorghum bicolour (SORVU); 125 g/Ha): 70
- Herbicidal activity on a 0-100 scale, SORVU (Sorghum bicolour (SORVU); 250 g/Ha): 80
- Herbicidal activity on a 0-100 scale, SORVU (Sorghum bicolour (SORVU); 500 g/Ha): 90
- Herbicidal activity on a 0-100 scale, ECHCG ([4]; 15 g/Ha): 70
- Herbicidal activity on a 0-100 scale, ECHCG ([4]; 30 g/Ha): 80
- Herbicidal activity on a 0-100 scale, ECHCG ([4]; 60 g/Ha): 80
- Herbicidal activity on a 0-100 scale, ECHCG ([4]; 125 g/Ha): 80
- Herbicidal activity on a 0-100 scale, ECHCG ([4]; 250 g/Ha): 90
- Herbicidal activity on a 0-100 scale, ECHCG ([4]; 500 g/Ha): 100
- Herbicidal activity ORYSA (Orysa sativa (ORYSA); 15 g/Ha): 0
- Herbicidal activity on a 0-100 scale, ORYSA (Orysa sativa (ORYSA); 15 g/Ha): 0
- Herbicidal activity ORYSA (Orysa sativa (ORYSA); 30 g/Ha): 0
- Herbicidal activity on a 0-100 scale, ORYSA (Orysa sativa (ORYSA); 30 g/Ha): 0
- Herbicidal activity ORYSA (Orysa sativa (ORYSA); 60 g/Ha): 0
- Herbicidal activity on a 0-100 scale, ORYSA (Orysa sativa (ORYSA); 60 g/Ha): 0
- Herbicidal activity ORYSA (Orysa sativa (ORYSA); 125 g/Ha): 0
- Herbicidal activity on a 0-100 scale, ORYSA (Orysa sativa (ORYSA); 125 g/Ha): 0
- Herbicidal activity ORYSA (Orysa sativa (ORYSA); 250 g/Ha): 0
- Herbicidal activity on a 0-100 scale, ORYSA (Orysa sativa (ORYSA); 250 g/Ha): 0
- Herbicidal activity ORYSA (Orysa sativa (ORYSA); 500 g/Ha): 0
- Herbicidal activity on a 0-100 scale, ORYSA (Orysa sativa (ORYSA); 500 g/Ha): 0
- Herbicidal activity GALAP (Galium aparine (GALAP); 30 g/Ha): 20
- Herbicidal activity GALAP (Galium aparine (GALAP); 60 g/Ha): 20
- Herbicidal activity GALAP (Galium aparine (GALAP); 125 g/Ha): 30
- Herbicidal activity GALAP (Galium aparine (GALAP); 250 g/Ha): 40
- Herbicidal activity GALAP (Galium aparine (GALAP); 500 g/Ha): 70
- Herbicidal activity SINAR (Sinapis arvensis (SINAR); 15 g/Ha): 60
- Herbicidal activity SINAR (Sinapis arvensis (SINAR); 30 g/Ha): 60
- Herbicidal activity SINAR (Sinapis arvensis (SINAR); 60 g/Ha): 80
- Herbicidal activity SINAR (Sinapis arvensis (SINAR); 125 g/Ha): 90
- Herbicidal activity SINAR (Sinapis arvensis (SINAR); 250 g/Ha): 90
- Herbicidal activity SINAR (Sinapis arvensis (SINAR); 500 g/Ha): 90
- Herbicidal activity POAAN (Poa annua (POAAN); 15 g/Ha): 0
- Herbicidal activity POAAN (Poa annua (POAAN); 30 g/Ha): 10
- Herbicidal activity POAAN (Poa annua (POAAN); 60 g/Ha): 20
- Herbicidal activity POAAN (Poa annua (POAAN); 125 g/Ha): 60
- Herbicidal activity POAAN (Poa annua (POAAN); 250 g/Ha): 70
- Herbicidal activity POAAN (Poa annua (POAAN); 500 g/Ha): 60
- Herbicidal activity ABUTH ([5]; 15 g/Ha): 80
- Herbicidal activity ABUTH ([5]; 30 g/Ha): 90
- Herbicidal activity ABUTH ([5]; 60 g/Ha): 90
- Herbicidal activity ABUTH ([5]; 125 g/Ha): 90
- Herbicidal activity ABUTH ([5]; 250 g/Ha): 100
- Herbicidal activity ABUTH ([5]; 500 g/Ha): 100
- Herbicidal activity SIDSP (Sida spinosa (SIDSP); 60 g/Ha): 80
- Herbicidal activity SIDSP (Sida spinosa (SIDSP); 125 g/Ha): 90
- Herbicidal activity SIDSP (Sida spinosa (SIDSP); 250 g/Ha): 90
- Herbicidal activity SIDSP (Sida spinosa (SIDSP); 500 g/Ha): 100
- Herbicidal activity on a 0-100 scale, PANMI ([6]; 15 g/Ha): 20
- Herbicidal activity on a 0-100 scale, PANMI ([6]; 30 g/Ha): 30
- Herbicidal activity on a 0-100 scale, PANMI ([6]; 60 g/Ha): 50
- Herbicidal activity on a 0-100 scale, PANMI ([6]; 125 g/Ha): 50
- Herbicidal activity on a 0-100 scale, PANMI ([6]; 250 g/Ha): 70
- Herbicidal activity on a 0-100 scale, PANMI ([6]; 500 g/Ha): 80
- Herbicidal activity VERPE (Veronica persica (VERPE); 15 g/Ha): 70
- Herbicidal activity VERPE (Veronica persica (VERPE); 30 g/Ha): 70
- Herbicidal activity VERPE (Veronica persica (VERPE); 60 g/Ha): 70
- Herbicidal activity VERPE (Veronica persica (VERPE); 125 g/Ha): 80
- Herbicidal activity VERPE (Veronica persica (VERPE); 250 g/Ha): 80
- Herbicidal activity VERPE (Veronica persica (VERPE); 500 g/Ha): 90
- Herbicidal activity on a 0-100 scale, DIGSA ([7]; 15 g/Ha): 0
- Herbicidal activity on a 0-100 scale, DIGSA ([7]; 30 g/Ha): 0
- Herbicidal activity on a 0-100 scale, DIGSA ([7]; 60 g/Ha): 0
- Herbicidal activity on a 0-100 scale, DIGSA ([7]; 125 g/Ha): 10
- Herbicidal activity on a 0-100 scale, DIGSA ([7]; 250 g/Ha): 30
- Herbicidal activity on a 0-100 scale, DIGSA ([7]; 500 g/Ha): 70
- Herbicidal activity IPOHE ([8]; 15 g/Ha): 90
- Herbicidal activity IPOHE ([8]; 30 g/Ha): 100
- Herbicidal activity IPOHE ([8]; 60 g/Ha): 100
- Herbicidal activity IPOHE ([8]; 125 g/Ha): 100
- Herbicidal activity IPOHE ([8]; 250 g/Ha): 100
- Herbicidal activity IPOHE ([8]; 500 g/Ha): 100
- Herbicidal activity LOLPE (Lolium perenne (LOLPE); 15 g/Ha): 40
- Herbicidal activity LOLPE (Lolium perenne (LOLPE); 30 g/Ha): 50
- Herbicidal activity LOLPE (Lolium perenne (LOLPE); 60 g/Ha): 60
- Herbicidal activity LOLPE (Lolium perenne (LOLPE); 125 g/Ha): 70
- Herbicidal activity LOLPE (Lolium perenne (LOLPE); 250 g/Ha): 80
- Herbicidal activity LOLPE (Lolium perenne (LOLPE); 500 g/Ha): 90
- Herbicidal activity BEAVA (Beta vulgaris (BEAVA); 15 g/Ha): 70
- Herbicidal activity BEAVA (Beta vulgaris (BEAVA); 30 g/Ha): 60
- Herbicidal activity BEAVA (Beta vulgaris (BEAVA); 60 g/Ha): 60
- Herbicidal activity BEAVA (Beta vulgaris (BEAVA); 125 g/Ha): 70
- Herbicidal activity BEAVA (Beta vulgaris (BEAVA); 250 g/Ha): 70
- Herbicidal activity BEAVA (Beta vulgaris (BEAVA); 500 g/Ha): 70
- Herbicidal activity BIDPI (Bidens pilosa (BIDPI); 15 g/Ha): 60
- Herbicidal activity BIDPI (Bidens pilosa (BIDPI); 30 g/Ha): 60
- Herbicidal activity BIDPI (Bidens pilosa (BIDPI); 60 g/Ha): 70
- Herbicidal activity BIDPI (Bidens pilosa (BIDPI); 125 g/Ha): 70
- Herbicidal activity BIDPI (Bidens pilosa (BIDPI); 250 g/Ha): 80
- Herbicidal activity BIDPI (Bidens pilosa (BIDPI); 500 g/Ha): 100
